Measured values published in US20260070911A1, “INHIBITORS OF TAM RECEPTORS” (National Health Research Institutes, priority 2022, published 2026).

Columns and labels:
Assay type in all cases: biochemical
[1] = target: T1, MERTK (Homo sapiens, UniProt Q12866); assay: MERTK enzymatic assay (Kinase Glo); conditions: purified kinase, ATP 12 μM, read-out: MER Enzymatic Inhibition (%)
T1 sequence (Q12866 21-999): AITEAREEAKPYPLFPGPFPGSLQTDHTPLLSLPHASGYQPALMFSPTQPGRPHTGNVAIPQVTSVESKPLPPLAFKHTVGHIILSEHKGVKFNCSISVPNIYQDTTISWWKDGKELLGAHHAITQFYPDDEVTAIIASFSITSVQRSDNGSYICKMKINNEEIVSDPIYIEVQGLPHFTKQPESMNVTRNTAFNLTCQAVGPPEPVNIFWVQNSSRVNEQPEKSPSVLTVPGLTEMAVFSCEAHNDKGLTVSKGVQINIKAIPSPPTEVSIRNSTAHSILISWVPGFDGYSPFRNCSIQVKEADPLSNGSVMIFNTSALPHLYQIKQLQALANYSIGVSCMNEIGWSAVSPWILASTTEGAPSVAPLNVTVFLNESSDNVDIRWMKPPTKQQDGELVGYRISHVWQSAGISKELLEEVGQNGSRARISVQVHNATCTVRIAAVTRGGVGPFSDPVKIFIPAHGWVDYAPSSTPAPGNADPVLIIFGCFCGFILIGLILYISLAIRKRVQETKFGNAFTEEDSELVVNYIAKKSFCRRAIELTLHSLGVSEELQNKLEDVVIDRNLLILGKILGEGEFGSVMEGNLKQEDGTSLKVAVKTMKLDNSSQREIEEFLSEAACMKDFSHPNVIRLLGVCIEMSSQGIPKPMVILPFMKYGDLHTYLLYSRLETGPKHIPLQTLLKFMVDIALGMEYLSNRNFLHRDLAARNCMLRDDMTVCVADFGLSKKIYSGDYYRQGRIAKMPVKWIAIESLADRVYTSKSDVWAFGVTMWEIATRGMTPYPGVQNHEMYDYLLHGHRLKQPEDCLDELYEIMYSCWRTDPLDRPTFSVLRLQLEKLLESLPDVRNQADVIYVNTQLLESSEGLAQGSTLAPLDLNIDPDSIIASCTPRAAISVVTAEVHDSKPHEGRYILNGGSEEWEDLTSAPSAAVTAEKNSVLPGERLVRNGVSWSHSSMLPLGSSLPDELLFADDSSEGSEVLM
Description: A purified kinase (AXL or MERTK) was incubated with a compound or DMSO (control) for 15 minutes in an assay buffer (25 mM Tri s pH 7.4, 10 mM MgCl2, 4 mM MnCl2, 2 mM DTT, 0.0100 BSA, 0.02% TritonX-100, 0.0100 Brij35 and 0.5 mM Na3VO4 for MERTK; and 40 mM Tri s pH 7.4, 20 mM MgCl2, 2 mM DTT, 0.01% BSA and 0.5 mM Na3VO4 for AXL). […] The mixture was incubated for 3 hours at 30° C. The luminescence was calculated to determine the kinase activity using a Kinase Glo assay kit for MERTK and an ADP-Glo Kinase Assay kit for AXL following the manufacture's instructions (Promega Corp., Madison, Wisconsin).
A study was conducted to compare exemplary compounds of formula (I) in inhibiting TAM activities, including MERTK, AXL, and TYRO3. An enzymatic assay was used in the study. A purified Kinase (i.e., MERTK, AXL, or TYRO3) was incubated with a compound or DMSO (control) for around 15 minutes in an assay buffer (25 mM Tris pH 7.4, 10 mM MgCl2, 4 mM MnCl2, 2 mM DTT, 0.01% BSA, 0.02% TritonX-100, 0.01% Brij35 and 0.5 mM Na3VO4 for MERTK; 40 mM Tris pH 7.4, 20 mM MgCl2, 2 mM DTT, 0.01% BSA and 0.5 mM Na3VO4 for AXL; and 25 mM Tris pH 7.4, 10 mM MgCl2, 4 mM MnCl2, 2 mM DTT, 0.01% BSA and 0.5 mM Na3VO4 for TYRO3). […] The mixture was incubated for 3 hours at 30° C. The luminescence was calculated to determine the kinase activity using a Kinase Glo assay kit for MERTK and an ADP-Glo Kinase assay kit for AXL and TYRO3 following the manufacture's instructions (Promega). Inhibition rates and half maximal inhibitory concentration (IC50) values were calculated. High percentage inhibition rates and low IC50 values are indicatives of high potency of the test compound.

[2] = tested on: MER/AXL; assay: Dual MER/AXL inhibition (enzymatic); conditions: class for both MER and AXL
[3] = target: T2, AXL (Homo sapiens, UniProt P30530); assay: AXL enzymatic assay (ADP-Glo); conditions: purified kinase, ATP 50 μM, read-out: AXL Enzymatic Inhibition (%)
T2 sequence (P30530 26-894): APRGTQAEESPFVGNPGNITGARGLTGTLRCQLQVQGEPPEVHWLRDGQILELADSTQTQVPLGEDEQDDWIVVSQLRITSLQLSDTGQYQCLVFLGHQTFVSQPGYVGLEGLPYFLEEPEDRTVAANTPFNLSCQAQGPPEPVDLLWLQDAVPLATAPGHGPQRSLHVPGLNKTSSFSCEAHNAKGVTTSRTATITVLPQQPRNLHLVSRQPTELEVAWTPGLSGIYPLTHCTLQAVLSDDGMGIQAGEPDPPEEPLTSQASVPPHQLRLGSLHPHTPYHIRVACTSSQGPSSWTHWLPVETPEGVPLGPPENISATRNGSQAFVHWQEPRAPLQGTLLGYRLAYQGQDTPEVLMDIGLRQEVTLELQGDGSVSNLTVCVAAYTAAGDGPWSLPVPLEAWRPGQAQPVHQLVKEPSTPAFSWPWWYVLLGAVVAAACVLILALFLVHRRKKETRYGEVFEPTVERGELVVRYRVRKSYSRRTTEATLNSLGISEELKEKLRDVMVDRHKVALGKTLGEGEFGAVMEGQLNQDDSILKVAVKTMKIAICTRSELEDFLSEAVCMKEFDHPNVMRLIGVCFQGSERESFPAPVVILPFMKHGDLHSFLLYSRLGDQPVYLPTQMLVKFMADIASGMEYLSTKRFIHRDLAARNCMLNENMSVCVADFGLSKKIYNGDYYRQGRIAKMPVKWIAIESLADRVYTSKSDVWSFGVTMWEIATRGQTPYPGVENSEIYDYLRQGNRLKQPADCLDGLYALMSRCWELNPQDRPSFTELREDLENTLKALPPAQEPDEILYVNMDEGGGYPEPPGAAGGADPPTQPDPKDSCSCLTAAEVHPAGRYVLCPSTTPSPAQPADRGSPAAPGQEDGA

For `O=C(Nc1ccc(Nc2ncnc3[nH]cc(C#Cc4ccccc4)c23)cc1)c1cccn(-c2ccc(F)cc2)c1=O` [Compound 13], the IC50 [1] was 100 to 50000 nM, the IC50 [2] was 100 to 50000 nM and the IC50 [3] was 100 to 50000 nM.

`CC(=O)Nc1cccc(-c2c(-c3cnn(C)c3)oc3ncnc(Oc4ccc(NC(=O)c5cccn(-c6ccc(F)nc6)c5=O)cc4)c23)c1` [Compound 81] gave an IC50 [1] of 100 to 50000 nM, an IC50 [2] of 100 to 50000 nM and an IC50 [3] of 100 to 50000 nM.

`CN(C)Cc1cccc(-c2c[nH]c3ncnc(Oc4ccc(NC(=O)c5cccn(-c6ccc(F)cc6)c5=O)cc4)c23)c1` [Compound 82] showed an IC50 [1] of less than 20 nM, an IC50 [2] of less than 20 nM and an IC50 [3] of less than 20 nM.

In the case of `Cn1cc(-c2oc3ncnc(Oc4ccc(NC(=O)c5ccc(-c6ccc(F)cc6)o5)cc4)c3c2-c2cccc(N)c2)cn1` [Compound 117], the IC50 [1] is reported as 100 to 50000 nM, the IC50 [2] is reported as 100 to 50000 nM and the IC50 [3] is reported as 20 to 100 nM.

`Cn1cc(-c2oc3ncnc(Oc4ccc(NC(=O)c5cn(C)n(-c6ccc(F)cc6)c5=O)cc4)c3c2-c2ccccc2N)cn1` [Compound 141] was tested, and the IC50 [1] was 100 to 50000 nM, the IC50 [2] was 100 to 50000 nM and the IC50 [3] was 100 to 50000 nM.

In the case of `CC(=O)Nc1cccc(-c2c(-c3c(C)noc3C)oc3ncnc(Oc4ccc(NC(=O)c5cccn(-c6ccc(F)cc6)c5=O)cc4)c23)c1` [Compound 26], the IC50 [1] is reported as 100 to 50000 nM, the IC50 [2] is reported as 100 to 50000 nM and the IC50 [3] is reported as 100 to 50000 nM.

`COc1nn(-c2ccc(C)cc2)cc1C(=O)Nc1ccc(Oc2ncnc3oc(-c4cnn(C)c4)c(-c4cccc(CN(C)C)c4)c23)cc1` [Compound 138] gave an IC50 [1] of 100 to 50000 nM, an IC50 [2] of 100 to 50000 nM and an IC50 [3] of 100 to 50000 nM.

For `CN(C)Cc1cccc(-c2c(-c3cnn(C)c3)oc3ncnc(Oc4ccc(NC(=O)c5cccn(C6CCCCC6)c5=O)cc4)c23)c1` [Compound 84], the IC50 [1] was 100 to 50000 nM, the IC50 [2] was 100 to 50000 nM and the IC50 [3] was 100 to 50000 nM.

Compound `O=C(Nc1ccc(Oc2ncnc3[nH]cc(-c4ccccc4)c23)cc1)c1cccn(-c2ccc(F)cc2)c1=O` [Compound 8] has an IC50 [1] of 20 to 100 nM, an IC50 [2] of 100 to 50000 nM and an IC50 [3] of 100 to 50000 nM.

With `CC(=O)Nc1cccc(-c2coc3ncnc(Oc4ccc(NC(=O)c5cccn(-c6ccc(F)cc6)c5=O)cc4)c23)c1` [Compound 47] the IC50 [1] was 100 to 50000 nM, the IC50 [2] was 100 to 50000 nM and the IC50 [3] was 20 to 100 nM.

`Cc1cc(F)ccc1-n1cccc(C(=O)Nc2ccc(Oc3ncnc4oc(-c5cnn(C)c5)c(-c5cccc(N)c5)c34)cc2)c1=O` [Compound 73] gave an IC50 [1] of 20 to 100 nM, an IC50 [2] of 20 to 100 nM and an IC50 [3] of less than 20 nM.

Work on `CNc1cccc(-c2c[nH]c3ncnc(Oc4ccc(NC(=O)c5cccn(-c6ccc(F)cc6)c5=O)cc4)c23)c1` [Compound 22] yielded an IC50 [1] of 100 to 50000 nM, an IC50 [2] of 100 to 50000 nM and an IC50 [3] of 20 to 100 nM.

With `CC(=O)Nc1cccc(-c2c(-c3cnn(C)c3)oc3ncnc(Oc4ccc(NC(=O)c5cc6c(n(-c7ccccc7)c5=O)CCCC6=O)cc4)c23)c1` [Compound 62] the IC50 [1] was 100 to 50000 nM, the IC50 [2] was 100 to 50000 nM and the IC50 [3] was less than 20 nM.

In the case of `CN(C)Cc1cccc(-c2n[nH]c3ncnc(Oc4ccc(NC(=O)c5cccn(-c6ccc(F)cc6)c5=O)cc4)c23)c1` [Compound 88], the IC50 [1] is reported as 20 to 100 nM, the IC50 [2] is reported as 20 to 100 nM and the IC50 [3] is reported as less than 20 nM.

Compound `Cn1cc(-c2oc3ncnc(Oc4ccc(NC(=O)c5cn(C)n(-c6ccc(F)cc6)c5=O)cc4)c3c2-c2cccc(N3CCCCC3=O)c2)cn1` [Compound 176] has an IC50 [1] of 100 to 50000 nM, an IC50 [2] of 100 to 50000 nM and an IC50 [3] of 100 to 50000 nM.

`Cn1cc(-c2oc3ncnc(Oc4ccc(NC(=O)c5cccn(-c6ccc(F)cc6)c5=O)cc4)c3c2-c2cccc(N3CCNCC3)c2)cn1` [Compound 33] gave an IC50 [1] of less than 20 nM, an IC50 [2] of less than 20 nM and an IC50 [3] of less than 20 nM.

`CC(=O)Nc1cccc(-c2c(-c3cnn(C)c3)oc3ncnc(Oc4ccc(NC(=O)c5ccc(-c6ccc(F)cc6)o5)cc4)c23)c1` [Compound 118] was tested, and the IC50 [1] was 100 to 50000 nM, the IC50 [2] was 100 to 50000 nM and the IC50 [3] was 100 to 50000 nM.

`CC(=O)Nc1cccc(-c2c(-c3cn[nH]c3)oc3ncnc(Oc4ccc(NC(=O)c5cccn(-c6ccc(F)cc6)c5=O)cc4)c23)c1` [Compound 40] gave an IC50 [1] of 20 to 100 nM, an IC50 [2] of 20 to 100 nM and an IC50 [3] of less than 20 nM.

Compound `Cn1cc(-c2oc3ncnc(Oc4ccc(NC(=O)c5cccn(-c6ccc(F)cc6)c5=O)cc4)c3c2-c2cccnc2)cn1` [Compound 31] has an IC50 [1] of 100 to 50000 nM, an IC50 [2] of 100 to 50000 nM and an IC50 [3] of less than 20 nM.
